Results on 13 compounds are retold here after ChEMBL document CHEMBL1147001, “Synthesis and antibacterial activity of novel oxazolidinones bearing N-hydroxyacetamidine substituent” (2006).

≈ marks a conversion by molar mass, not a printed value. Where only a bound is given, the exact number is not on record here.

The ED50 is the midpoint of the dose-response relation. The low end stands for greater potency, the high end for weaker potency.

Holding throughout (type): functional
The test system of experiment [1] is Staphylococcus aureus. Briefly: Antibacterial activity against methicillin-resistant Staphylococcus aureus DRCC 019.
For experiment [2], the system named is Enterococcus faecalis. Briefly: Antibacterial activity against vancomycin-susceptible Enterococcus faecalis DRCC 034.
The test system of experiment [3] is Staphylococcus aureus. Briefly: Antibacterial activity against methicillin-resistant Staphylococcus aureus DRCC 446.
Experiment [4] concerns Enterococcus faecalis. Briefly: Antibacterial activity against vancomycin-resistant Enterococcus faecalis DRCC 154.
Experiment [5] has as its system Enterococcus faecalis. Briefly: Antibacterial activity against vancomycin-resistant Enterococcus faecalis DRCC 153.
The subject of experiment [6] is Staphylococcus aureus. Briefly: Antibacterial activity against methicillin-susceptible Staphylococcus aureus DRCC 035.
The test system of another experiment is Haemophilus influenzae. Briefly: Antibacterial activity against beta lactamase negative Haemophilus influenzae DRCC 433.
Experiment [7] relates to Staphylococcus aureus. Briefly: Efficacy against po dosed mouse infected with Staphylococcus aureus ATCC 29213.
The subject of another experiment is Moraxella catarrhalis. Briefly: Antibacterial activity against beta lactamase negative Moraxella catarrhalis DRCC 300.

Turning to `C/C(S)=N/C[C@H]1CN(c2ccc(N3CCN(CC(=N)NO)CC3)c(F)c2)C(=O)O1`, the MIC was found to be 1 µg/mL (≈ 2.36 µM) in the experiment on Staphylococcus aureus [1]; 1 µg/mL (≈ 2.36 µM) in the experiment on Enterococcus faecalis [2]; 1 µg/mL (≈ 2.36 µM) against Staphylococcus aureus [3]; 1 µg/mL (≈ 2.36 µM) against Enterococcus faecalis [4]; 1 µg/mL (≈ 2.36 µM) against Enterococcus faecalis [5]; 2 µg/mL (≈ 4.71 µM) against Staphylococcus aureus [6]. The MIC with Haemophilus influenzae worked out at 4 µg/mL (≈ 9.42 µM).

Regarding `N/C(CN1CCN(c2ccc(N3C[C@H](CNC(=O)C(F)F)OC3=O)cc2F)CC1)=N\O`, the MIC in the experiment on Staphylococcus aureus [1] was 4 µg/mL (≈ 9 µM); against Enterococcus faecalis [2] it was 4 µg/mL (≈ 9 µM); against Staphylococcus aureus [3], 4 µg/mL (≈ 9 µM); in the experiment on Enterococcus faecalis [4] it was 4 µg/mL (≈ 9 µM); in the experiment on Moraxella catarrhalis it was 8 µg/mL (≈ 18 µM); against Enterococcus faecalis [5] it was 2 µg/mL (≈ 4.5 µM). Also, the MIC in the experiment on Staphylococcus aureus [6] and with Haemophilus influenzae was 4 µg/mL (≈ 9 µM) each time. In addition, the ED50 in the experiment with Staphylococcus aureus [7] came out at 12.1 mg/kg/day.

Regarding `COC(=O)NC[C@H]1CN(c2cc(F)c(N3CCN(CC(=N)NO)CC3)c(F)c2)C(=O)O1`, the MIC stood at 1 µg/mL (≈ 2.26 µM) in the experiment with Staphylococcus aureus [1]; 1 µg/mL (≈ 2.26 µM) against Enterococcus faecalis [2]; 1 µg/mL (≈ 2.26 µM) against Staphylococcus aureus [3]; 2 µg/mL (≈ 4.52 µM) against Enterococcus faecalis [4]; 2 µg/mL (≈ 4.52 µM) against Moraxella catarrhalis; 1 µg/mL (≈ 2.26 µM) in the experiment on Enterococcus faecalis [5]. In addition, the MIC against Staphylococcus aureus [6] stood at 2 µg/mL (≈ 4.52 µM); against Haemophilus influenzae it was 8 µg/mL (≈ 18.1 µM). Moreover, it took a dose of 32.2 mg/kg/day to reach the 50% effect level with Staphylococcus aureus [7] (ED50).

As for `C/C(S)=N/C[C@H]1CN(c2cc(F)c(N3CCN(CC(=N)NO)CC3)c(F)c2)C(=O)O1`, the MIC was determined as 0.25 µg/mL (≈ 0.565 µM) in the experiment on Staphylococcus aureus [1]; 0.5 µg/mL (≈ 1.13 µM) against Enterococcus faecalis [2]; 0.25 µg/mL (≈ 0.565 µM) in the experiment on Staphylococcus aureus [3]; 0.25 µg/mL (≈ 0.565 µM) in the experiment on Enterococcus faecalis [4]; 0.5 µg/mL (≈ 1.13 µM) in the experiment with Moraxella catarrhalis; 0.5 µg/mL (≈ 1.13 µM) in the experiment on Enterococcus faecalis [5]. Also, the MIC with Staphylococcus aureus [6] stood at 1 µg/mL (≈ 2.26 µM); in the experiment on Haemophilus influenzae it was 4 µg/mL (≈ 9.04 µM). The compound also returned an ED50 in the experiment on Staphylococcus aureus [7] of 22.1 mg/kg/day.

For `CO/C(S)=N/C[C@H]1CN(c2ccc(N3CCN(CC(=N)NO)CC3)c(F)c2)C(=O)O1`, the MIC against Staphylococcus aureus [1] is 0.5 µg/mL (≈ 1.14 µM); in the experiment with Enterococcus faecalis [2], 0.5 µg/mL (≈ 1.14 µM); in the experiment with Staphylococcus aureus [3], 0.5 µg/mL (≈ 1.14 µM); in the experiment on Enterococcus faecalis [4], 0.5 µg/mL (≈ 1.14 µM); against Moraxella catarrhalis, 8 µg/mL (≈ 18.2 µM); against Enterococcus faecalis [5], 0.5 µg/mL (≈ 1.14 µM). The MIC with Staphylococcus aureus [6] was found to be 1 µg/mL (≈ 2.27 µM); in the experiment on Haemophilus influenzae, 8 µg/mL (≈ 18.2 µM). In the experiment with Staphylococcus aureus [7], it took a dose of 21.2 mg/kg/day to reach the 50% effect level (ED50).

On to `N/C(CN1CCN(c2ccc(N3C[C@H](COc4ccon4)OC3=O)cc2F)CC1)=N\O`, for which the MIC is 4 µg/mL (≈ 9.21 µM) against Staphylococcus aureus [1]; 16 µg/mL (≈ 36.8 µM) against Enterococcus faecalis [2]; 4 µg/mL (≈ 9.21 µM) in the experiment on Staphylococcus aureus [3]; 16 µg/mL (≈ 36.8 µM) in the experiment on Enterococcus faecalis [4]; 8 µg/mL (≈ 18.4 µM) against Moraxella catarrhalis; 8 µg/mL (≈ 18.4 µM) with Enterococcus faecalis [5]. Besides, the MIC worked out at 16 µg/mL (≈ 36.8 µM) against Staphylococcus aureus [6] and 256 µg/mL (≈ 589 µM) against Haemophilus influenzae.

With `N/C(CN1CCN(c2c(F)cc(N3C[C@H](CNC(=O)C(F)F)OC3=O)cc2F)CC1)=N\O`, the MIC against Staphylococcus aureus [1] worked out at 1 µg/mL (≈ 2.16 µM); in the experiment with Enterococcus faecalis [2] it was 1 µg/mL (≈ 2.16 µM); with Staphylococcus aureus [3], 1 µg/mL (≈ 2.16 µM); against Enterococcus faecalis [4], 1 µg/mL (≈ 2.16 µM); in the experiment with Moraxella catarrhalis it was 2 µg/mL (≈ 4.33 µM); against Enterococcus faecalis [5], 0.5 µg/mL (≈ 1.08 µM). Also, the MIC in the experiment on Staphylococcus aureus [6] amounted to 2 µg/mL (≈ 4.33 µM); in the experiment with Haemophilus influenzae, 4 µg/mL (≈ 8.65 µM). This compound came in with an ED50 with Staphylococcus aureus [7] of 18.3 mg/kg/day.

As to `CC(=O)NC[C@H]1CN(c2ccc(N3CCN(CC(=N)NO)CC3)c(F)c2)C(=O)O1`, the MIC against Staphylococcus aureus [1] is 4 µg/mL (≈ 9.79 µM); against Enterococcus faecalis [2], 8 µg/mL (≈ 19.6 µM); against Staphylococcus aureus [3] it was 4 µg/mL (≈ 9.79 µM); against Enterococcus faecalis [4], 8 µg/mL (≈ 19.6 µM); with Moraxella catarrhalis it was 8 µg/mL (≈ 19.6 µM); with Enterococcus faecalis [5] it was 2 µg/mL (≈ 4.9 µM). Besides, the MIC in the experiment on Staphylococcus aureus [6] turned out to be 16 µg/mL (≈ 39.2 µM); in the experiment with Haemophilus influenzae, 8 µg/mL (≈ 19.6 µM).

As to `CO/C(S)=N/C[C@H]1CN(c2cc(F)c(N3CCN(CC(=N)NO)CC3)c(F)c2)C(=O)O1`, the MIC in the experiment on Staphylococcus aureus [1] is 0.25 µg/mL (≈ 0.545 µM); in the experiment on Enterococcus faecalis [2] it was 0.25 µg/mL (≈ 0.545 µM); in the experiment on Staphylococcus aureus [3], 0.25 µg/mL (≈ 0.545 µM); against Enterococcus faecalis [4], 0.25 µg/mL (≈ 0.545 µM); with Moraxella catarrhalis, 0.5 µg/mL (≈ 1.09 µM); against Enterococcus faecalis [5], 0.25 µg/mL (≈ 0.545 µM). Moreover, the values for the MIC with Staphylococcus aureus [6] and against Haemophilus influenzae were 0.5 µg/mL (≈ 1.09 µM) and 4 µg/mL (≈ 8.72 µM), respectively. The ED50 in the experiment on Staphylococcus aureus [7] was 32.2 mg/kg/day.

For the compound `N/C(CN1CCN(c2c(F)cc(N3C[C@H](COc4ccon4)OC3=O)cc2F)CC1)=N\O`, the MIC against Staphylococcus aureus [1] came out at 2 µg/mL (≈ 4.42 µM); with Enterococcus faecalis [2] it was 4 µg/mL (≈ 8.84 µM); with Staphylococcus aureus [3] it was 2 µg/mL (≈ 4.42 µM); against Enterococcus faecalis [4] it was 4 µg/mL (≈ 8.84 µM); against Moraxella catarrhalis, 16 µg/mL (≈ 35.4 µM); against Enterococcus faecalis [5], 2 µg/mL (≈ 4.42 µM). For the same compound, the MIC against Staphylococcus aureus [6] was 4 µg/mL (≈ 8.84 µM); against Haemophilus influenzae, > 32 µg/mL.

As for `COC(=O)NC[C@H]1CN(c2ccc(N3CCN(CC(=N)NO)CC3)c(F)c2)C(=O)O1`, the MIC against Staphylococcus aureus [1] was 16 µg/mL (≈ 37.7 µM); against Enterococcus faecalis [2], 4 µg/mL (≈ 9.42 µM); in the experiment with Staphylococcus aureus [3], 16 µg/mL (≈ 37.7 µM); with Enterococcus faecalis [4], 16 µg/mL (≈ 37.7 µM); in the experiment on Moraxella catarrhalis, > 16 µg/mL; against Enterococcus faecalis [5] it was 4 µg/mL (≈ 9.42 µM). In addition, the MIC was found to be 8 µg/mL (≈ 18.8 µM) with Staphylococcus aureus [6] and 32 µg/mL (≈ 75.4 µM) with Haemophilus influenzae.

As for `CC(=O)NC[C@H]1CN(c2cc(F)c(N3CCN(CC(=N)NO)CC3)c(F)c2)C(=O)O1`, the MIC was found to be 1 µg/mL (≈ 2.35 µM) in the experiment with Staphylococcus aureus [1]; 1 µg/mL (≈ 2.35 µM) in the experiment on Enterococcus faecalis [2]; 1 µg/mL (≈ 2.35 µM) in the experiment on Staphylococcus aureus [3]; 1 µg/mL (≈ 2.35 µM) against Enterococcus faecalis [4]; 4 µg/mL (≈ 9.38 µM) in the experiment with Moraxella catarrhalis; 1 µg/mL (≈ 2.35 µM) with Enterococcus faecalis [5]. Further, the MIC against Staphylococcus aureus [6] stood at 2 µg/mL (≈ 4.69 µM); against Haemophilus influenzae, 4 µg/mL (≈ 9.38 µM).

Regarding `CC(=O)NC[C@H]1CN(c2ccc(N3CCOCC3)c(F)c2)C(=O)O1` [LINEZOLID], the results for the MIC with Staphylococcus aureus [1], with Moraxella catarrhalis and against Haemophilus influenzae were 1 µg/mL (≈ 2.96 µM), 8 µg/mL (≈ 23.7 µM) and 8 µg/mL (≈ 23.7 µM), respectively. The ED50 in the experiment with Staphylococcus aureus [7] was 5.3 mg/kg/day.
